Publication PMC3848335, “Structure–Activity Relationships and Molecular Modeling of Sphingosine Kinase Inhibitors” (Journal of Medicinal Chemistry, 2013)
Entries after “also recorded” stand apart in the source; their conditions may differ.

Legend:
[1] = target: T1, SK2 (Homo sapiens, UniProt Q9NRA0); assay: Evaluation of compounds as putative substrates of SK2 (absence of Sph); conditions: 50 μM compound, 250 μM ATP, absence of Sph (Fig. S1)
T1 sequence (Q9NRA0 1-654): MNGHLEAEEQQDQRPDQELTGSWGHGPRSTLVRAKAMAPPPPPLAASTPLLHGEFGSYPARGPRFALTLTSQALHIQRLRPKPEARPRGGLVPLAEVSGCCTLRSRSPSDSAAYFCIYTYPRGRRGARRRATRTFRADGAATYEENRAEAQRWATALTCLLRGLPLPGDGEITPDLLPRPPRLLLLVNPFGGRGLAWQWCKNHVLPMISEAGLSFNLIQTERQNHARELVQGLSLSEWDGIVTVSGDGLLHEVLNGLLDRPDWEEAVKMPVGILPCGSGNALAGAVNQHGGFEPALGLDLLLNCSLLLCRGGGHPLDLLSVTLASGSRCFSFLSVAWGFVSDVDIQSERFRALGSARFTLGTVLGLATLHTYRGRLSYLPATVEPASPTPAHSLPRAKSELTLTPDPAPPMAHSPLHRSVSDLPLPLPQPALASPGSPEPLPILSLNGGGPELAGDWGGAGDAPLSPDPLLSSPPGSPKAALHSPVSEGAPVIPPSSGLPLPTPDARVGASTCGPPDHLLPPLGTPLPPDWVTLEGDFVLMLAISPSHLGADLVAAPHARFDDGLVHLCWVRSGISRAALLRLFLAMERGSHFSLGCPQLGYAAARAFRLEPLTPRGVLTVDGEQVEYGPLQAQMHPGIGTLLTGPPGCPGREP

[2] = target: T2, SK1 (Homo sapiens, UniProt Q9NYA1); assay: SK1 activity assay (inhibition; [γ-32P]ATP, recombinant SK1 in HEK 293 cell lysates); type: biochemical; design: made in house; host or cells: HEK 293 cells (lysate, not purified); conditions: for SK1 inhibition (in words): 3 μM Sph, 250 μM ATP (Figure 3); for isoform selectivity SK1 vs SK2 (in words): comparison of inhibition of SK1 (3 μM Sph) and SK2 (10 μM Sph)
[3] = target: T2, SK1; assay: Evaluation of compounds as putative substrates of SK1 (absence of Sph); conditions: 50 μM compound, 250 μM ATP
[4] = target: T1, SK2; assay: SK2 activity assay (inhibition; [γ-32P]ATP, purified SK2); type: biochemical; conditions: 50 μM compound, 10 μM Sph, 250 μM ATP (Figure 3)
Experimental: To examine SAR among a panel of related compounds, we prepared a series of analogues bearing a 4-hydroxypiperidinyl group but varied the linker length between the aryl group and the piperidine. We also assessed the role of the alkyl substituent in the aryl group.
Figure 3 Effect of inhibitors on SK1 or SK2 activity. SK1 activity was measured using 3 μM Sph and 250 μM ATP. SK2 activity was assayed using 10 μM Sph and 250 μM ATP (n = 3 for each compound; results are expressed as % of control ± SD). […]. The control is 100% and equals activity against Sph alone.
Sphingosine kinase activity assays.
For SK2 activity assays, sphingosine (Sph) was complexed with fatty acid free bovine serum albumin (final concentration, 0.2 mg/mL) in reaction buffer 1 containing 20 mM Tris (pH 7.4), 1 mM EDTA, 1 mM Na3VO4, 40 mM β−glycerophosphate, 1 mM NaF, 0.007% (v/v) β6mercaptoethanol, 20% (v/v) glycerol, 10 µg/mL aprotinin, 10 µg/mL soybean trypsin inhibitor, 1 mM PMSF, 0.5 mM 46 deoxypyridoxine, and 400 mM KCl. Inhibition of SK2 activity was determined by incubating 37 ng of purified SK2 for 30 min at 30 °C in the presence of 10 µM Sph, 250 µM of [γ632P]ATP (specific activity, 4.4×10^4 cpm/nmol) in 10 mM MgCl2, and varying concentrations of the inhibitors dissolved in DMSO or control (5% v/v DMSO). […]
Compounds bearing hydroxyl groups were assessed for their ability to act as substrates for SK1 and […]

T2 sequence (Q9NYA1 whole entry, canonical isoform): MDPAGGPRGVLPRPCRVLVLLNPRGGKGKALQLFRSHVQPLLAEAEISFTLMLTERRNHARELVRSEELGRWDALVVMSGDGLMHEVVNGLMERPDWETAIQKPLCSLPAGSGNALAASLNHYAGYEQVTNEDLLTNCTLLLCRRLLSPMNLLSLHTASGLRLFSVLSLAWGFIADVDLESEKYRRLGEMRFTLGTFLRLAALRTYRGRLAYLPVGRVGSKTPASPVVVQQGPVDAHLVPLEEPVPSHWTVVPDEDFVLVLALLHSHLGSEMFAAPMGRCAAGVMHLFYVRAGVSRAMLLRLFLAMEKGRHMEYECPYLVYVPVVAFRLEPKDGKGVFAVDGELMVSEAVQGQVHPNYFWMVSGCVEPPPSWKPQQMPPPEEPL

| Compound | SK1 inhibition (in words) ([2]; 50 μM compound) | further results |
| --- | --- | --- |
| CCCCCCCCc1ccc(CCN2CC[C@H](O)C2)cc1 [RB-037, (S)-1-(4-Octylphenethyl)pyrrolidin-3-ol] | retained inhibitory activity against SK1 | substrate for SK2 (in words) [1]: weak substrates for SK2 |
| CCCCCCCCCCCCc1ccc(CCN2CCC[C@@H]2CO)cc1 [RB-042, (R)-(1-(4-Dodecylphenethyl)pyrrolidin-2-yl)methanol] |  | isoform selectivity SK1 vs SK2 (in words) [2]: equipotent inhibitors of SK1 and SK2 |
| CCCCCCCCc1ccc(CCCN2CCC(O)CC2)cc1 [RB-024, 1-(3-(4-Octylphenyl)propyl)piperidin-4-ol] | did not significantly alter |  |
| CCCCCCCCCCCCc1ccc(CCN2CCC(N)CC2)cc1 [RB-033, 1-(4-Dodecylphenethyl)piperidin-4-amine] | eliminated the inhibitory activity toward SK1 |  |
| CCCCCCCCc1cn(-c2ccc(CCN3CCC(O)CC3)cc2)nn1 [RB-065] |  | isoform selectivity SK1 vs SK2 (in words) [2]: highly selective SK1 inhibitor |
| Cc1ccc(CCN2CCC(O)CC2)cc1 [RB-026, 1-(4-Methylphenethyl)piperidin-4-ol] | almost complete lack of inhibition | decrease of SK1 inhibition compared with RB-023 ([2]; 50 μM compound): more than 6 fold |
| 4-(4-Octylphenethyl)pyridine [RB-051] | effectively abolished |  |
| Cc1ccc(CCN2CCC(N=[N+]=[N-])CC2)cc1 [RB-029, 4-Azido-1-(4-methylphenethyl)piperidine] | reduced SK1 inhibition markedly |  |
| CCCCCCCCc1ccc(CCN2CCC[C@@H]2CO)cc1 [RB-040, (R)-(1-(4-Octylphenethyl)pyrrolidin-2-yl)methanol] |  | isoform selectivity SK1 vs SK2 (in words) [2]: equipotent inhibitors of SK1 and SK2 |
| CCCCCCCCc1ccc(CCN2CCC(F)CC2)cc1 [RB-034, 4-Fluoro-1-(4-octylphenethyl)piperidine] | eliminated inhibitory activity against SK1 |  |
| CCCCCCCCc1ccc(CCN2CCC(N=[N+]=[N-])CC2)cc1 [RB-030, 4-Azido-1-(4-octylphenethyl)piperidine] | reduced SK1 inhibition markedly |  |
| CCCCCCCCCCCCc1ccc(CCN2CCC[C@H]2CO)cc1 [RB-043, (S)-(1-(4-Dodecylphenethyl)pyrrolidin-2-yl)methanol] | much less active; also recorded: abolished | substrate for SK2 (in words) [1]: weak substrates for SK2 |
| CCCCCCCCc1ccc(CCN2CCC(N)CC2)cc1 [RB-032, 1-(4-Octylphenethyl)piperidin-4-amine] | diminished the potency of SK1 inhibition | isoform selectivity SK1 vs SK2 (in words) [2]: isoform selectivity of SK1 over SK2 was retained |
| CCCCCCCCc1ccc(CCN2CC[C@@H](O)C2)cc1 [RB-038, (R)-1-(4-Octylphenethyl)pyrrolidin-3-ol] | retained inhibitory activity against SK1 |  |
| CCCCCCCCc1ccc(CCCCN2CCC(O)CC2)cc1 [RB-025, 1-(4-(4-Octylphenyl)butyl)piperidin-4-ol] | did not significantly alter | substrate for SK1 (in words) [3]: not substrates for SK1 |
| Cc1ccc(CCN2CCC(N)CC2)cc1 [RB-031, 1-(4-Methylphenethyl)piperidin-4-amine] | eliminated the inhibitory activity toward SK1 |  |
| CCCCCCCCCCCCc1ccc(CCN2CCC(O)CC2)cc1 [RB-028, 1-(4-Dodecylphenethyl)piperidin-4-ol] |  | substrate for SK1 (in words) [3]: not substrates for SK1 |
| CCCCCCCCc1ccc(CN2CCC(O)CC2)cc1 [RB-023, 1-(4-Octylbenzyl)piperidin-4-ol] | did not significantly alter |  |
| CCCCCCCCc1ccc(CCN2CCC(OC)CC2)cc1 [RB-036, 4-Methoxy-1-(4-octylphenethyl)piperidine] | eliminated inhibitory activity against SK1 |  |
| CCCCCCCCc1ccc(CCN2CCC(=O)CC2)cc1 [RB-035, 1-(4-Octylphenethyl)piperidin-4-one] | maintained inhibition of SK1 | SK2 inhibition (in words) [4]: increased inhibition of SK2; isoform selectivity SK1 vs SK2 (in words) [2]: eliminated the isoform selectivity |

Further lines, with some results ahead:

| SK1 inhibition (in words) ([2]; 50 μM compound) | Compound | further results |
| --- | --- | --- |
| ineffective as SK inhibitors | CCCCc1cn(-c2ccc(CC[N+]3(C)CCCCC3)cc2)nn1.CS(=O)(=O)[O-] [RB-060, 1-(4-(4-Butyl-1H-1,2,3-triazol-1-yl)phenethyl)-1-methylpiperidinium Methanesulfonate] |  |
| ineffective as SK inhibitors | CCCCCCCCc1ccc(C[n+]2ccc(N3CCC(C)CC3)cc2)cc1.[Br-] [RB-053, 4-(4-Methylpiperidin-1-yl)-1-(4-octylbenzyl)pyridinium Bromide] | isoform selectivity SK1 vs SK2 (in words) [2]: moderate selectivity for SK2 |
| abolished | Cc1ccc(CCN2CCC[C@@H]2CO)cc1 [RB-039, (R)-(1-(4-Methylphenethyl)pyrrolidin-2-yl)methanol] |  |
| ineffective as SK inhibitors | CCCCCCCCc1cn(-c2ccc(CC[N+]3(C)CCCCC3)cc2)nn1.CS(=O)(=O)[O-] [RB-062, 1-Methyl-1-(4-(4-octyl-1H-1,2,3-triazol-1-yl)phenethyl)piperidinium Methanesulfonate] |  |
| ineffective as SK inhibitors | 1-Methyl-4-(4-octylphenethyl)pyridinium Iodide [RB-052] |  |
| effectively abolished | CCCCCCCCc1ccc(C(=O)NCc2ccncc2)cc1 [RB-048, 4-Octyl-N-(pyridin-4-ylmethyl)benzamide] |  |
| ineffective as SK inhibitors | CCCCCc1cn(-c2ccc(CC[N+]3(C)CCCCC3)cc2)nn1.CS(=O)(=O)[O-] [RB-061, 1-Methyl-1-(4-(4-pentyl-1H-1,2,3-triazol-1-yl)phenethyl)piperidinium Methanesulfonate] |  |
| much less active | CCCCCCCCc1ccc(CCN2CCC[C@H]2CO)cc1 [RB-041, (S)-(1-(4-Octylphenethyl)pyrrolidin-2-yl)methanol] | substrate for SK2 (in words) [1]: weak substrates for SK2 |
